Active and inactive are the calls of the source. The rule behind the calls is not given here.

Test [1] deals with Aortic ring. Briefly: Relaxation of phenyphrine-induced constriction in rat aortic rings. It counts as functional, tissue-based. Particulars: Aorta.
The target in test [2] is Nitric oxide synthase 1 (Homo sapiens) (UniProt P29475). Kind of test: Activity of tetrahydrobiopterin free nNOS expressed in Escherichia coli at 1 to 100 uM.
In test [3] the test system is Aortic ring. Kind of test: Relaxation of phenyphrine-induced constriction in rat aortic rings depleted with tetrahydrobiopterin. It counts as functional, tissue-based. The settings on record: Aorta.
For test [4], the target named is Nitric oxide synthase 1 (Homo sapiens) (UniProt P29475). Kind of test: Activity of tetrahydrobiopterin free nNOS assessed as increase in NO in presence of NADPH and arginine at 1 to 200 uM.

Nitric oxide synthase 1 (Homo sapiens), sequence (P29475 whole entry): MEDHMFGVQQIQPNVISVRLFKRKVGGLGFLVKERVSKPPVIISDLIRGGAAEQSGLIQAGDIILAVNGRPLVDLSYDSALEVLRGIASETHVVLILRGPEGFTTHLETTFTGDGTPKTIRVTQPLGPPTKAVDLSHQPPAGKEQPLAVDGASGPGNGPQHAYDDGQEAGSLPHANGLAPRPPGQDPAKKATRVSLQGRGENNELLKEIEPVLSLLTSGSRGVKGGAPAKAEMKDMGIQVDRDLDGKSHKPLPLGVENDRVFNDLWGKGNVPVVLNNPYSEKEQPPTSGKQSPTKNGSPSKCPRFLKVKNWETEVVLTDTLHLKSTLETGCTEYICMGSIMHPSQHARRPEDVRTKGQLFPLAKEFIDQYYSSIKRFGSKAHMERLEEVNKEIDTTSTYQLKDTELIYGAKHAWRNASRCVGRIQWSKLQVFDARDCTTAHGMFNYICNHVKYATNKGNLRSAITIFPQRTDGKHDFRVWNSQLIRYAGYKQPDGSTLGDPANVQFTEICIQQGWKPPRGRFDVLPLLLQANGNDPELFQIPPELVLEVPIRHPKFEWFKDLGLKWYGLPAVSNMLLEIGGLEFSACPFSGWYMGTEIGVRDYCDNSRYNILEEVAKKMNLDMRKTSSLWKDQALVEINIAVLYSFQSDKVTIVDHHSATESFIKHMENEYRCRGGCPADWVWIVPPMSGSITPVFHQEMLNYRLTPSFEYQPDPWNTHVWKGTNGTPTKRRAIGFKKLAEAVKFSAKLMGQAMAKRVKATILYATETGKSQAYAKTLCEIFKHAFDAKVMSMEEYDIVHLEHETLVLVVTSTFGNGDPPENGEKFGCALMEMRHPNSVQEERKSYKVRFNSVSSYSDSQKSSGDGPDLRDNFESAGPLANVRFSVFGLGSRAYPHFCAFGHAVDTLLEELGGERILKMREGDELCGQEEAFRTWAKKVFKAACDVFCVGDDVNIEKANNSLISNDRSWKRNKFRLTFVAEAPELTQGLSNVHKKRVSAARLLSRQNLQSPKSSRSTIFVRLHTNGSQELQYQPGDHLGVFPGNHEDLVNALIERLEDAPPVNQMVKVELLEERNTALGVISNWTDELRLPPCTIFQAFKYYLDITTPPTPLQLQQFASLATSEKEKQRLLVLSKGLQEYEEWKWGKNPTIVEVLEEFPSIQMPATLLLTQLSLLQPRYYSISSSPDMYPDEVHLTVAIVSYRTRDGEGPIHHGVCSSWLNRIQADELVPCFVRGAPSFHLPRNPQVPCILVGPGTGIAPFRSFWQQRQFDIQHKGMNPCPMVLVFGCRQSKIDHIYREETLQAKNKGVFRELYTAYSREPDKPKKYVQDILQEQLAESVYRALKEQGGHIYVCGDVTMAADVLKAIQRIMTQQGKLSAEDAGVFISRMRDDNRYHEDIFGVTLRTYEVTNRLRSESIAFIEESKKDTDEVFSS

As for `C[C@H](O)[C@H](O)[C@H]1CNc2nc(N)[nH]c(=O)c2N1`, in the test on Aortic ring [1], the outcome was inactive.
Take `CC(=O)C1=Nc2c(nc(N)[nH]c2=O)NC1(C)C`: in test [2], the result was inactive. The outcome with Aortic ring [3] was Active.
Turning to `CC(=O)C1Nc2c(nc(N)[nH]c2=O)NC1(C)C` (centres undefined), the result in test [4] was Active.

The values are drawn from ChEMBL document CHEMBL1143118, “6-Acetyl-7,7-dimethyl-5,6,7,8-tetrahydropterin is an activator of nitric oxide synthases” (Bioorg Med Chem Lett, 2008).
